Laboratory results reported in PubChem BioAssay (NCI).
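All cell lines were grown in 96-well plates and treated with compound for 48 hours. TGI: total growth inhibition.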

Legend:
Experiment in all cases: NCI tumour cell line growth inhibition, 48 h
UACC-62 melanoma = tested on: UACC-62 melanoma
ACHN renal = tested on: ACHN renal
SF-539 CNS = tested on: SF-539 CNS
HS 578T breast = tested on: HS 578T breast
HOP-92 NSCLC = tested on: HOP-92 NSCLC
OVCAR-8 ovarian = tested on: OVCAR-8 ovarian
SK-MEL-28 melanoma = tested on: SK-MEL-28 melanoma
A498 renal = tested on: A498 renal
SR leukemia = tested on: SR leukemia
SK-MEL-5 melanoma = tested on: SK-MEL-5 melanoma
EKVX NSCLC = tested on: EKVX NSCLC
MDA-MB-435 = tested on: MDA-MB-435
COLO 205 colon = tested on: COLO 205 colon
MDA-N = tested on: MDA-N
MDA-MB-231 breast = tested on: MDA-MB-231 breast
BT-549 breast = tested on: BT-549 breast
HL-60(TB) leukemia = tested on: HL-60(TB) leukemia
NCI-H23 lung = tested on: NCI-H23 lung
NCI-H522 lung = tested on: NCI-H522 lung
HCC-2998 colon = tested on: HCC-2998 colon
M14 melanoma = tested on: M14 melanoma
NCI-H460 lung = tested on: NCI-H460 lung
NCI/ADR-RES ovarian = tested on: NCI/ADR-RES ovarian
SNB-75 CNS = tested on: SNB-75 CNS
IGROV1 ovarian = tested on: IGROV1 ovarian
SK-MEL-2 melanoma = tested on: SK-MEL-2 melanoma
DU-145 prostate = tested on: DU-145 prostate
UACC-257 melanoma = tested on: UACC-257 melanoma
RPMI-8226 leukemia = tested on: RPMI-8226 leukemia
OVCAR-5 ovarian = tested on: OVCAR-5 ovarian
SNB-19 CNS = tested on: SNB-19 CNS
MALME-3M melanoma = tested on: MALME-3M melanoma
SF-295 CNS = tested on: SF-295 CNS
OVCAR-3 ovarian = tested on: OVCAR-3 ovarian
786-0 renal = tested on: 786-0 renal
SW-620 colon = tested on: SW-620 colon
RXF 393 renal = tested on: RXF 393 renal
KM12 colon = tested on: KM12 colon
HCT-15 colon = tested on: HCT-15 colon
HT29 colon = tested on: HT29 colon
LOX IMVI melanoma = tested on: LOX IMVI melanoma
MOLT-4 leukemia = tested on: MOLT-4 leukemia
PC-3 prostate = tested on: PC-3 prostate
SK-OV-3 ovarian = tested on: SK-OV-3 ovarian
MCF7 breast = tested on: MCF7 breast
A549 NSCLC = tested on: A549 NSCLC
CAKI-1 renal = tested on: CAKI-1 renal
HOP-62 NSCLC = tested on: HOP-62 NSCLC
HCT-116 colon = tested on: HCT-116 colon
U251 CNS = tested on: U251 CNS
K-562 leukemia = tested on: K-562 leukemia
T-47D breast = tested on: T-47D breast
TK-10 renal = tested on: TK-10 renal
UO-31 renal = tested on: UO-31 renal
CCRF-CEM leukemia = tested on: CCRF-CEM leukemia
SF-268 CNS = tested on: SF-268 CNS
SN12C renal = tested on: SN12C renal
NCI-H226 lung = tested on: NCI-H226 lung
OVCAR-4 ovarian = tested on: OVCAR-4 ovarian

For `COc1ccccc1C(O)[C@@H]1C[C@@H]2[C@H]3CC[C@@](C)([C@@H]2O1)C3(C)C` (some centres undefined), the TGI (UACC-62 melanoma) was 32.8 µM, the TGI (ACHN renal) was 35.4 µM and the TGI (SF-539 CNS) was 24.2 µM. The TGI (HS 578T breast) was 35.3 µM, the TGI (HOP-92 NSCLC) was 30.7 µM and the TGI (OVCAR-8 ovarian) was 38.9 µM. The TGI (SK-MEL-28 melanoma) was 37.3 µM, the TGI (A498 renal) was 29.5 µM and the TGI (SR leukemia) was 48.3 µM. For the same compound, the TGI (SK-MEL-5 melanoma) was 31.6 µM, the TGI (EKVX NSCLC) was > 100 µM and the TGI (MDA-MB-435) was 34.4 µM. For the same compound, the TGI (COLO 205 colon) was 35.2 µM, the TGI (MDA-N) was 32 µM and the TGI (MDA-MB-231 breast) was 34.4 µM. It also gave a TGI (BT-549 breast) of 42.2 µM, a TGI (HL-60(TB) leukemia) of 49.1 µM and a TGI (NCI-H23 lung) of 50.5 µM. It also gave a TGI (NCI-H522 lung) of 38.5 µM, a TGI (HCC-2998 colon) of 41.8 µM and a TGI (M14 melanoma) of 40.1 µM. The TGI (NCI-H460 lung) was 36.3 µM, the TGI (NCI/ADR-RES ovarian) was 42 µM and the TGI (SNB-75 CNS) was 37.7 µM. For the same compound, the TGI (IGROV1 ovarian) was 31.2 µM, the TGI (SK-MEL-2 melanoma) was 34.3 µM and the TGI (DU-145 prostate) was 49.6 µM. For the same compound, the TGI (UACC-257 melanoma) was 39 µM, the TGI (RPMI-8226 leukemia) was 78.7 µM and the TGI (OVCAR-5 ovarian) was 38.6 µM. It also gave a TGI (SNB-19 CNS) of 39 µM, a TGI (MALME-3M melanoma) of 30.2 µM and a TGI (SF-295 CNS) of 34.6 µM. For the same compound, the TGI (OVCAR-3 ovarian) was 31.3 µM, the TGI (786-0 renal) was 32.7 µM and the TGI (SW-620 colon) was 37.9 µM. For the same compound, the TGI (RXF 393 renal) was 32.6 µM, the TGI (KM12 colon) was 41.6 µM and the TGI (HCT-15 colon) was 57.7 µM. The TGI (HT29 colon) was 39.1 µM, the TGI (LOX IMVI melanoma) was 35.8 µM and the TGI (MOLT-4 leukemia) was 39 µM. It also gave a TGI (PC-3 prostate) of 45.2 µM, a TGI (SK-OV-3 ovarian) of 87.1 µM and a TGI (MCF7 breast) of 41.7 µM. For the same compound, the TGI (A549 NSCLC) was 43.4 µM, the TGI (CAKI-1 renal) was 56.4 µM and the TGI (HOP-62 NSCLC) was 35.1 µM. It also gave a TGI (HCT-116 colon) of 43.1 µM, a TGI (U251 CNS) of 32.1 µM and a TGI (K-562 leukemia) of 52.3 µM. The TGI (T-47D breast) was 41.3 µM, the TGI (TK-10 renal) was 50.7 µM and the TGI (UO-31 renal) was 32.4 µM. For the same compound, the TGI (CCRF-CEM leukemia) was 44.1 µM, the TGI (SF-268 CNS) was 58 µM and the TGI (SN12C renal) was 30.3 µM.

In the case of `COC1CC(OC2C(C)OC(OC3C(C)OC(OC4C(C)OC(O[C@H]5CC[C@@]6(C)C(=CC[C@]7(O)[C@@H]6C[C@@H](OC(C)=O)[C@@]6(C)[C@]7(O)CC[C@@]6(O)C(C)=O)C5)CC4OC)CC3OC)CC2OC)OC(C)C1O` (some centres undefined), the TGI (UACC-62 melanoma) is reported as > 25 µM, the TGI (ACHN renal) is reported as > 25 µM and the TGI (SF-539 CNS) is reported as > 25 µM. For the same compound, the TGI (HS 578T breast) was > 25 µM, the TGI (HOP-92 NSCLC) was > 25 µM and the TGI (OVCAR-8 ovarian) was > 25 µM. For the same compound, the TGI (SR leukemia) was > 25 µM, the TGI (SK-MEL-5 melanoma) was > 25 µM and the TGI (EKVX NSCLC) was > 25 µM. The TGI (MDA-MB-435) was > 25 µM, the TGI (COLO 205 colon) was > 25 µM and the TGI (MDA-N) was > 25 µM. The TGI (MDA-MB-231 breast) was > 25 µM, the TGI (BT-549 breast) was > 25 µM and the TGI (HL-60(TB) leukemia) was > 25 µM. The TGI (NCI-H23 lung) was > 25 µM, the TGI (NCI-H522 lung) was > 25 µM and the TGI (HCC-2998 colon) was > 25 µM. For the same compound, the TGI (M14 melanoma) was > 25 µM, the TGI (NCI/ADR-RES ovarian) was > 25 µM and the TGI (SNB-75 CNS) was > 25 µM. For the same compound, the TGI (IGROV1 ovarian) was > 25 µM, the TGI (SK-MEL-2 melanoma) was > 25 µM and the TGI (DU-145 prostate) was > 25 µM. For the same compound, the TGI (UACC-257 melanoma) was > 25 µM, the TGI (RPMI-8226 leukemia) was > 25 µM and the TGI (OVCAR-5 ovarian) was > 25 µM. The TGI (SNB-19 CNS) was > 25 µM, the TGI (MALME-3M melanoma) was > 25 µM and the TGI (SF-295 CNS) was > 25 µM. For the same compound, the TGI (OVCAR-3 ovarian) was > 25 µM, the TGI (786-0 renal) was > 25 µM and the TGI (SW-620 colon) was > 25 µM. The TGI (KM12 colon) was > 25 µM, the TGI (HCT-15 colon) was > 25 µM and the TGI (HT29 colon) was > 25 µM. For the same compound, the TGI (LOX IMVI melanoma) was > 25 µM, the TGI (MOLT-4 leukemia) was > 25 µM and the TGI (NCI-H226 lung) was > 25 µM. The TGI (PC-3 prostate) was > 25 µM, the TGI (SK-OV-3 ovarian) was > 25 µM and the TGI (OVCAR-4 ovarian) was > 25 µM. The TGI (MCF7 breast) was > 25 µM, the TGI (A549 NSCLC) was > 25 µM and the TGI (CAKI-1 renal) was > 25 µM. The TGI (HOP-62 NSCLC) was > 25 µM, the TGI (HCT-116 colon) was > 25 µM and the TGI (U251 CNS) was > 25 µM. The TGI (K-562 leukemia) was > 25 µM, the TGI (T-47D breast) was > 25 µM and the TGI (TK-10 renal) was > 25 µM. For the same compound, the TGI (UO-31 renal) was > 25 µM, the TGI (CCRF-CEM leukemia) was > 25 µM and the TGI (SF-268 CNS) was > 25 µM. The TGI (SN12C renal) was > 25 µM.

`O=C1C=CC(=O)c2c(O)c3c(c(O)c21)C[C@H](O)[C@H](O)[C@@H]3O` gave a TGI (UACC-62 melanoma) of 10.1 µM, a TGI (ACHN renal) of 8 µM and a TGI (SF-539 CNS) of 9.16 µM. For the same compound, the TGI (HS 578T breast) was 7.87 µM, the TGI (HOP-92 NSCLC) was 2.87 µM and the TGI (OVCAR-8 ovarian) was 6.59 µM. For the same compound, the TGI (SK-MEL-28 melanoma) was 5.38 µM, the TGI (A498 renal) was 13.3 µM and the TGI (SR leukemia) was > 100 µM. It also gave a TGI (SK-MEL-5 melanoma) of 3.18 µM, a TGI (EKVX NSCLC) of 6.15 µM and a TGI (MDA-MB-435) of 3.13 µM. For the same compound, the TGI (COLO 205 colon) was 1.12 µM, the TGI (MDA-N) was 2.95 µM and the TGI (MDA-MB-231 breast) was 6.08 µM. It also gave a TGI (BT-549 breast) of 2.81 µM, a TGI (HL-60(TB) leukemia) of 2.9 µM and a TGI (NCI-H23 lung) of 4.67 µM. It also gave a TGI (HCC-2998 colon) of 21.3 µM, a TGI (M14 melanoma) of 3.86 µM and a TGI (NCI-H460 lung) of 16.8 µM. It also gave a TGI (NCI/ADR-RES ovarian) of 8.16 µM, a TGI (SNB-75 CNS) of 7.99 µM and a TGI (IGROV1 ovarian) of 6.92 µM. It also gave a TGI (SK-MEL-2 melanoma) of 3.43 µM, a TGI (DU-145 prostate) of 6.87 µM and a TGI (UACC-257 melanoma) of 2.64 µM. For the same compound, the TGI (RPMI-8226 leukemia) was 4.85 µM, the TGI (OVCAR-5 ovarian) was 17.2 µM and the TGI (SNB-19 CNS) was 26.9 µM. It also gave a TGI (MALME-3M melanoma) of 2.6 µM, a TGI (SF-295 CNS) of 20.3 µM and a TGI (OVCAR-3 ovarian) of 3.88 µM. It also gave a TGI (786-0 renal) of 4.06 µM, a TGI (SW-620 colon) of 2.37 µM and a TGI (RXF 393 renal) of 3.43 µM. It also gave a TGI (KM12 colon) of 16.8 µM, a TGI (HCT-15 colon) of 7.19 µM and a TGI (HT29 colon) of 5.83 µM. The TGI (LOX IMVI melanoma) was 4.08 µM, the TGI (MOLT-4 leukemia) was > 23.6 µM and the TGI (NCI-H226 lung) was 36.7 µM. The TGI (PC-3 prostate) was 8.34 µM, the TGI (SK-OV-3 ovarian) was 33 µM and the TGI (OVCAR-4 ovarian) was 3.45 µM. For the same compound, the TGI (MCF7 breast) was 3.49 µM, the TGI (A549 NSCLC) was 9.39 µM and the TGI (CAKI-1 renal) was 4.38 µM. It also gave a TGI (HOP-62 NSCLC) of 13.2 µM, a TGI (HCT-116 colon) of 1.73 µM and a TGI (U251 CNS) of 16.3 µM. The TGI (K-562 leukemia) was > 21.2 µM, the TGI (T-47D breast) was 4 µM and the TGI (TK-10 renal) was 3.27 µM. For the same compound, the TGI (UO-31 renal) was > 24 µM, the TGI (SF-268 CNS) was 8.02 µM and the TGI (SN12C renal) was 3.82 µM.
